Source: BigSolDB 2.1

Question: What does the source list for `NC(=O)c1ccc(N)cc1`?
Answer: solubility (mole fraction) (in acetone, 283.15 K): 0.00745; solubility (mole fraction) (in acetone, 288.15 K): 0.00795; solubility (mole fraction) (in acetone, 293.15 K): 0.0086; solubility (mole fraction) (in acetone, 298.15 K): 0.00956; solubility (mole fraction) (in acetone, 303.15 K): 0.0105; solubility (mole fraction) (in acetone, 308.15 K): 0.0118; solubility (mole fraction) (in acetone, 313.15 K): 0.0137; solubility (mole fraction) (in acetone, 318.15 K): 0.0154; solubility (mole fraction) (in acetone, 323.15 K): 0.0176; solubility (mole fraction) (in acetonitrile, 283.15 K): 0.00193; solubility (mole fraction) (in acetonitrile, 288.15 K): 0.00204; solubility (mole fraction) (in acetonitrile, 293.15 K): 0.00225; solubility (mole fraction) (in acetonitrile, 298.15 K): 0.00251; solubility (mole fraction) (in acetonitrile, 303.15 K): 0.00298; solubility (mole fraction) (in acetonitrile, 308.15 K): 0.0036; solubility (mole fraction) (in acetonitrile, 313.15 K): 0.00447; solubility (mole fraction) (in acetonitrile, 318.15 K): 0.00546; solubility (mole fraction) (in acetonitrile, 323.15 K): 0.00661; solubility (mole fraction) (in ethanol, 283.15 K): 0.00621; solubility (mole fraction) (in ethanol, 288.15 K): 0.00649; solubility (mole fraction) (in ethanol, 293.15 K): 0.00697; solubility (mole fraction) (in ethanol, 298.15 K): 0.00777; solubility (mole fraction) (in ethanol, 303.15 K): 0.00883; solubility (mole fraction) (in ethanol, 308.15 K): 0.0104; solubility (mole fraction) (in ethanol, 313.15 K): 0.0121; solubility (mole fraction) (in ethanol, 318.15 K): 0.0141; solubility (mole fraction) (in ethanol, 323.15 K): 0.016; solubility (mole fraction) (in ethyl acetate, 283.15 K): 0.000539; solubility (mole fraction) (in ethyl acetate, 288.15 K): 0.000606; solubility (mole fraction) (in ethyl acetate, 293.15 K): 0.000697; solubility (mole fraction) (in ethyl acetate, 298.15 K): 0.000845; solubility (mole fraction) (in ethyl acetate, 303.15 K): 0.00103; solubility (mole fraction) (in ethyl acetate, 308.15 K): 0.00131; solubility (mole fraction) (in ethyl acetate, 313.15 K): 0.00166; solubility (mole fraction) (in ethyl acetate, 318.15 K): 0.00207; solubility (mole fraction) (in ethyl acetate, 323.15 K): 0.00257; solubility (mole fraction) (in isobutanol, 283.15 K): 0.00239; solubility (mole fraction) (in isobutanol, 288.15 K): 0.00249; solubility (mole fraction) (in isobutanol, 293.15 K): 0.00263; solubility (mole fraction) (in isobutanol, 298.15 K): 0.0028; solubility (mole fraction) (in isobutanol, 303.15 K): 0.00309; solubility (mole fraction) (in isobutanol, 308.15 K): 0.00342; solubility (mole fraction) (in isobutanol, 313.15 K): 0.00384; solubility (mole fraction) (in isobutanol, 318.15 K): 0.00422; solubility (mole fraction) (in isobutanol, 323.15 K): 0.00467; solubility (mole fraction) (in isopropanol, 283.15 K): 0.00331; solubility (mole fraction) (in isopropanol, 288.15 K): 0.00354; solubility (mole fraction) (in isopropanol, 293.15 K): 0.00393; solubility (mole fraction) (in isopropanol, 298.15 K): 0.00431; solubility (mole fraction) (in isopropanol, 303.15 K): 0.00487; solubility (mole fraction) (in isopropanol, 308.15 K): 0.00577; solubility (mole fraction) (in isopropanol, 313.15 K): 0.00677; solubility (mole fraction) (in isopropanol, 318.15 K): 0.00819; solubility (mole fraction) (in isopropanol, 323.15 K): 0.00965; solubility (mole fraction) (in methanol, 283.15 K): 0.0121; solubility (mole fraction) (in methanol, 288.15 K): 0.0132; solubility (mole fraction) (in methanol, 293.15 K): 0.0145; solubility (mole fraction) (in methanol, 298.15 K): 0.0163; solubility (mole fraction) (in methanol, 303.15 K): 0.0188; solubility (mole fraction) (in methanol, 308.15 K): 0.0214; solubility (mole fraction) (in methanol, 313.15 K): 0.0246; solubility (mole fraction) (in methanol, 318.15 K): 0.0287; solubility (mole fraction) (in methanol, 323.15 K): 0.0328; solubility (mole fraction) (in methyl acetate, 283.15 K): 0.00147; solubility (mole fraction) (in methyl acetate, 288.15 K): 0.00154; solubility (mole fraction) (in methyl acetate, 293.15 K): 0.0017; solubility (mole fraction) (in methyl acetate, 298.15 K): 0.00194; solubility (mole fraction) (in methyl acetate, 303.15 K): 0.00217; solubility (mole fraction) (in methyl acetate, 308.15 K): 0.00247; solubility (mole fraction) (in methyl acetate, 313.15 K): 0.00274; solubility (mole fraction) (in methyl acetate, 318.15 K): 0.00311; solubility (mole fraction) (in methyl acetate, 323.15 K): 0.00347; solubility (mole fraction) (in n-butanol, 283.15 K): 0.00257; solubility (mole fraction) (in n-butanol, 288.15 K): 0.00274; solubility (mole fraction) (in n-butanol, 293.15 K): 0.00292; solubility (mole fraction) (in n-butanol, 298.15 K): 0.00313; solubility (mole fraction) (in n-butanol, 303.15 K): 0.00345; solubility (mole fraction) (in n-butanol, 308.15 K): 0.00375; solubility (mole fraction) (in n-butanol, 313.15 K): 0.00421; solubility (mole fraction) (in n-butanol, 318.15 K): 0.00468; solubility (mole fraction) (in n-butanol, 323.15 K): 0.00514; solubility (mole fraction) (in n-butyl acetate, 283.15 K): 0.000749; solubility (mole fraction) (in n-butyl acetate, 288.15 K): 0.000819; solubility (mole fraction) (in n-butyl acetate, 293.15 K): 0.000974; solubility (mole fraction) (in n-butyl acetate, 298.15 K): 0.00121; solubility (mole fraction) (in n-butyl acetate, 303.15 K): 0.00152; solubility (mole fraction) (in n-butyl acetate, 308.15 K): 0.00186; solubility (mole fraction) (in n-butyl acetate, 313.15 K): 0.00229; solubility (mole fraction) (in n-butyl acetate, 318.15 K): 0.00275; solubility (mole fraction) (in n-butyl acetate, 323.15 K): 0.00331; solubility (mole fraction) (in n-propanol, 283.15 K): 0.00401; solubility (mole fraction) (in n-propanol, 288.15 K): 0.00411; solubility (mole fraction) (in n-propanol, 293.15 K): 0.0044; solubility (mole fraction) (in n-propanol, 298.15 K): 0.00496; solubility (mole fraction) (in n-propanol, 303.15 K): 0.00585; solubility (mole fraction) (in n-propanol, 308.15 K): 0.00711; solubility (mole fraction) (in n-propanol, 313.15 K): 0.00839; solubility (mole fraction) (in n-propanol, 318.15 K): 0.01; solubility (mole fraction) (in n-propanol, 323.15 K): 0.0117; solubility (mole fraction) (in water, 283.15 K): 0.000858; solubility (mole fraction) (in water, 288.15 K): 0.000983; solubility (mole fraction) (in water, 293.15 K): 0.00118; solubility (mole fraction) (in water, 298.15 K): 0.00146; solubility (mole fraction) (in water, 303.15 K): 0.00184; solubility (mole fraction) (in water, 308.15 K): 0.00229; solubility (mole fraction) (in water, 313.15 K): 0.00281; solubility (mole fraction) (in water, 318.15 K): 0.00364; solubility (mole fraction) (in water, 323.15 K): 0.00449
